Patent US10787452B2 (Vertex Pharmaceuticals Incorporated, priority 2012, dated 2020)

Tested on: HCT116 colorectal cancer cells
Test: Cisplatin sensitization assay (96 h cell viability MTS);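 further: compound concentration needed to lower the Cisplatin-alone IC50 by a set fold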
Assay type: cell-based
Details: 96 h MTS, compound plus Cisplatin
Summary of the method: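 Simultaneous addition of compound and cisplatin (2-fold series, top 10 μM final, full matrix), followed by 96 h culture at 37° C/5% CO2 and a 1 h MTS viability read.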

| Compound | Cisplatin Sensitization Assay |
| --- | --- |
| Nc1nn2cc(F)cnc2c1C(=O)Nc1cncc(F)c1N1CCC(C(=O)N2CC(N3CCCC3)C2)CC1 [I-G-43, 2-amino-6-fluoro-N-(5-fluoro-4-(4-(3-(pyrrolidin-1-yl)azetidine-1-carbonyl)piperidin-1-yl)pyridin-3-yl)pyrazolo[1,5-a]pyrimidine-3-carboxamide] | +++ (Compounds with a Cisplatin sensitization value of <0.02 μM are marked with “+++.”) |
| Nc1nn2cc(F)cnc2c1C(=O)Nc1cncc(F)c1N1CCC(C(=O)N2CC3CCC(C2)N3)CC1 [I-G-44, N-(4-(4-(3,8-diazabicyclo[3.2.1]octane-3-carbonyl)piperidin-1-yl)-5-fluoropyridin-3-yl)-2-amino-6-fluoropyrazolo[1,5-a]pyrimidine-3-carboxamide] | +++ (Compounds with a Cisplatin sensitization value of <0.02 μM are marked with “+++.”) |
| C[C@@H]1CN(C(=O)C2CCN(c3c(F)cncc3NC(=O)c3c(N)nn4cc(F)cnc34)CC2)CCN1 [I-G-45, (R)-2-amino-6-fluoro-N-(5-fluoro-4-(4-(3-methylpiperazine-1-carbonyl)piperidin-1-yl)pyridin-3-yl)pyrazolo[1,5-a]pyrimidine-3-carboxamide] | +++ (Compounds with a Cisplatin sensitization value of <0.02 μM are marked with “+++.”) |
| Nc1nn2cc(F)cnc2c1C(=O)Nc1cncc(F)c1N1CCC(C(=O)N2CCN3CCC2C3)CC1 (centres unmarked) [I-G-46, N-(4-(4-(1,4-diazabicyclo[3.2.1]octane-4-carbonyl)piperidin-1-yl)-5-fluoropyridin-3-yl)-2-amino-6-fluoropyrazolo[1,5-a]pyrimidine-3-carboxamide] | +++ (Compounds with a Cisplatin sensitization value of <0.02 μM are marked with “+++.”) |
| C[C@H]1CN(C(=O)C2CCN(c3c(F)cncc3NC(=O)c3c(N)nn4cc(F)cnc34)CC2)CCN1C [I-G-47, (S)-2-amino-N-(4-(4-(3,4-dimethylpiperazine-1-carbonyl)piperidin-1-yl)-5-fluoropyridin-3-yl)-6-fluoropyrazolo[1,5-a]pyrimidine-3-carboxamide] | +++ (Compounds with a Cisplatin sensitization value of <0.02 μM are marked with “+++.”) |
| Nc1nn2cc(F)cnc2c1C(=O)Nc1cncc(Cl)c1N1CCC(C(=O)N2CCNCC2)CC1 [I-G-48, 2-amino-N-(5-chloro-4-(4-(piperazine-1-carbonyl)piperidin-1-yl)pyridin-3-yl)-6-fluoropyrazolo[1,5-a]pyrimidine-3-carboxamide] | +++ (Compounds with a Cisplatin sensitization value of <0.02 μM are marked with “+++.”) |
| Nc1nn2cc(F)cnc2c1C(=O)Nc1cncc(F)c1N1CCC(C(=O)N2CC(N3CCC3)C2)CC1 [I-G-49, N-(4-(4-([1,3′-biazetidine]-1′-carbonyl)piperidin-1-yl)-5-fluoropyridin-3-yl)-2-amino-6-fluoropyrazolo[1,5-a]pyrimidine-3-carboxamide] | +++ (Compounds with a Cisplatin sensitization value of <0.02 μM are marked with “+++.”) |
| C[C@@H]1CN(C(=O)C2CCN(c3c(F)cncc3NC(=O)c3c(N)nn4cc(F)cnc34)CC2)CCN1C [I-G-50, (R)-2-amino-N-(4-(4-(3,4-dimethylpiperazine-1-carbonyl)piperidin-1-yl)-5-fluoropyridin-3-yl)-6-fluoropyrazolo[1,5-a]pyrimidine-3-carboxamide] | +++ (Compounds with a Cisplatin sensitization value of <0.02 μM are marked with “+++.”) |
| Nc1nn2cc(F)cnc2c1C(=O)Nc1cncc(F)c1N1CCC(C(=O)N2CC3CNCC3C2)CC1 (centres unmarked) [I-G-51, 2-amino-6-fluoro-N-(5-fluoro-4-(4-(octahydropyrrolo[3,4-c]pyrrole-2-carbonyl)piperidin-1-yl)pyridin-3-yl)pyrazolo[1,5-a]pyrimidine-3-carboxamide] | +++ (Compounds with a Cisplatin sensitization value of <0.02 μM are marked with “+++.”) |
| CN1C2CCC1CN(C(=O)C1CCN(c3c(F)cncc3NC(=O)c3c(N)nn4cc(F)cnc34)CC1)C2 [I-G-52, 2-amino-6-fluoro-N-(5-fluoro-4-(4-(8-methyl-3,8-diazabicyclo[3.2.1]octane-3-carbonyl)piperidin-1-yl)pyridin-3-yl)pyrazolo[1,5-a]pyrimidine-3-carboxamide] | +++ (Compounds with a Cisplatin sensitization value of <0.02 μM are marked with “+++.”) |
| CN1CC2CC1CN2C(=O)C1CCN(c2c(F)cncc2NC(=O)c2c(N)nn3cc(F)cnc23)CC1 (centres unmarked) [I-G-53, 2-amino-6-fluoro-N-(5-fluoro-4-(4-(5-methyl-2,5-diazabicyclo[2.2.1]heptane-2-carbonyl)piperidin-1-yl)pyridin-3-yl)pyrazolo[1,5-a]pyrimidine-3-carboxamide] | +++ (Compounds with a Cisplatin sensitization value of <0.02 μM are marked with “+++.”) |
| CN1CCN(C(=O)C2(C)CCN(c3c(F)cncc3NC(=O)c3c(N)nn4cc(F)cnc34)CC2)CC1 [I-G-54, 2-amino-6-fluoro-N-(5-fluoro-4-(4-methyl-4-(4-methylpiperazine-1-carbonyl)piperidin-1-yl)pyridin-3-yl)pyrazolo[1,5-a]pyrimidine-3-carboxamide] | +++ (Compounds with a Cisplatin sensitization value of <0.02 μM are marked with “+++.”) |
| Cc1cncc(NC(=O)c2c(N)nn3cc(F)cnc23)c1N1CCC(C(=O)N2CCN(C)CC2)CC1 [I-G-55, 2-amino-6-fluoro-N-(5-methyl-4-(4-(4-methylpiperazine-1-carbonyl)piperidin-1-yl)pyridin-3-yl)pyrazolo[1,5-a]pyrimidine-3-carboxamide] | +++ (Compounds with a Cisplatin sensitization value of <0.02 μM are marked with “+++.”) |
| Cc1cncc(NC(=O)c2c(N)nn3cc(F)cnc23)c1N1CCC(C(=O)N2CCNCC2)CC1 [I-G-56, 2-amino-6-fluoro-N-(5-methyl-4-(4-(piperazine-1-carbonyl)piperidin-1-yl)pyridin-3-yl)pyrazolo[1,5-a]pyrimidine-3-carboxamide] | +++ (Compounds with a Cisplatin sensitization value of <0.02 μM are marked with “+++.”) |
| Nc1nn2cc(F)cnc2c1C(=O)Nc1cncc(F)c1N1CCC(C(=O)N2CC(N3CCCCC3)C2)CC1 [I-G-57, 2-amino-6-fluoro-N-(5-fluoro-4-(4-(3-(piperidin-1-yl)azetidine-1-carbonyl)piperidin-1-yl)pyridin-3-yl)pyrazolo[1,5-a]pyrimidine-3-carboxamide] | +++ (Compounds with a Cisplatin sensitization value of <0.02 μM are marked with “+++.”) |
| Nc1nn2cc(F)cnc2c1C(=O)Nc1cncc(F)c1N1CCC(C(=O)N2CC[C@H](N3CCCC3)C2)CC1 [I-G-58, (S)—N-(4-(4-([1,3′-bipyrrolidine]-1′-carbonyl)piperidin-1-yl)-5-fluoropyridin-3-yl)-2-amino-6-fluoropyrazolo[1,5-a]pyrimidine-3-carboxamide] | +++ (Compounds with a Cisplatin sensitization value of <0.02 μM are marked with “+++.”) |
| Nc1nn2cc(F)cnc2c1C(=O)Nc1cncc(F)c1N1CCC(C(=O)N2CCC(N3CCCC3)CC2)CC1 [I-G-59, 2-amino-6-fluoro-N-(5-fluoro-4-(4-(4-(pyrrolidin-1-yl)piperidine-1-carbonyl)piperidin-1-yl)pyridin-3-yl)pyrazolo[1,5-a]pyrimidine-3-carboxamide] | +++ (Compounds with a Cisplatin sensitization value of <0.02 μM are marked with “+++.”) |
| Nc1nn2cc(F)cnc2c1C(=O)Nc1cncc(F)c1N1CCC(C(=O)N2CCC(N3CCCCC3)CC2)CC1 [I-G-60, N-(4-(4-([1,4′-bipiperidine]-1′-carbonyl)piperidin-1-yl)-5-fluoropyridin-3-yl)-2-amino-6-fluoropyrazolo[1,5-a]pyrimidine-3-carboxamide] | +++ (Compounds with a Cisplatin sensitization value of <0.02 μM are marked with “+++.”) |
| Nc1nn2cc(F)cnc2c1C(=O)Nc1cncc(F)c1N1CCC(C(=O)N2CCNC3CC32)CC1 (centres unmarked) [I-G-62, N-(4-(4-(2,5-diazabicyclo[4.1.0]heptane-2-carbonyl)piperidin-1-yl)-5-fluoropyridin-3-yl)-2-amino-6-fluoropyrazolo[1,5-a]pyrimidine-3-carboxamide] | +++ (Compounds with a Cisplatin sensitization value of <0.02 μM are marked with “+++.”) |
| CC1(O)CN(C(=O)C2CCN(c3c(F)cncc3NC(=O)c3c(N)nn4cc(F)cnc34)CC2)C1 [I-G-63, 2-amino-6-fluoro-N-(5-fluoro-4-(4-(3-hydroxy-3-methylazetidine-1-carbonyl)piperidin-1-yl)pyridin-3-yl)pyrazolo[1,5-a]pyrimidine-3-carboxamide] | +++ (Compounds with a Cisplatin sensitization value of <0.02 μM are marked with “+++.”) |
| Nc1nn2cc(F)cnc2c1C(=O)Nc1cncc(F)c1N1CCC(C(=O)N2CCC(N3CCCCC3)C2)CC1 (centres unmarked) [I-G-64, 2-amino-6-fluoro-N-(5-fluoro-4-(4-(3-(piperidin-1-yl)pyrrolidine-1-carbonyl)piperidin-1-yl)pyridin-3-yl)pyrazolo[1,5-a]pyrimidine-3-carboxamide] | +++ (Compounds with a Cisplatin sensitization value of <0.02 μM are marked with “+++.”) |
| CN1CCN(C(=O)C2CCN(c3c(F)cncc3NC(=O)c3c(N)nn4cc(F)cnc34)CC2)C2CC21 (centres unmarked) [I-G-65, 2-amino-6-fluoro-N-(5-fluoro-4-(4-(5-methyl-2,5-diazabicyclo[4.1.0]heptane-2-carbonyl)piperidin-1-yl)pyridin-3-yl)pyrazolo[1,5-a]pyrimidine-3-carboxamide] | +++ (Compounds with a Cisplatin sensitization value of <0.02 μM are marked with “+++.”) |
| Nc1nn2cc(F)cnc2c1C(=O)Nc1cncc(Cl)c1N1CCC(C(=O)N2CCN3CCC2CC3)CC1 [I-G-66, N-(4-(4-(1,4-diazabicyclo[3.2.2]nonane-4-carbonyl)piperidin-1-yl)-5-chloropyridin-3-yl)-2-amino-6-fluoropyrazolo[1,5-a]pyrimidine-3-carboxamide] | +++ (Compounds with a Cisplatin sensitization value of <0.02 μM are marked with “+++.”) |
